According to patent EP4635500A1, “THERAPEUTIC AGENT FOR BACTERIAL INFECTION” (Sumitomo Pharma Co., Ltd., priority 2022, dated 2024):
Values after ≈ are worked out from the molar mass of the structure shown. Read-outs that look alike come from different tables or passages of the source.

Key:
Format in all cases: cell-based
Escherichia coli = test: MIC and MBC, broth microdilution (Example 4, Table 3)
Serratia marcescens = test: as above; details: Serratia marcescens CDC-124 (SME-3)
Acinetobacter baumannii = test: as above
Bacteroides spp. = test: MIC, agar dilution, anaerobic bacteria (Example 9, Tables 17, 22); details: for MIC: (n)=Compound A µg/mL, 0=Compound A alone antibacterial
Gram-positive bacteria = test: MIC, agar dilution, anaerobic bacteria (Example 9, Tables 21, 26)
[1] = Escherichia coli CDC-150 (NDM-5)
[2] = Acinetobacter baumannii CDC-303 (OXA-23, OXA-66)

SMILES: CC(C)(O/N=C(\C(=O)N[C@@H]1C(=O)N2C(C(=O)[O-])=C(C[n+]3ccccc3)CS[C@H]12)c1csc(N)n1)C(=O)O [CAZ, ceftazidime]
- MBC/MIC ratio (Escherichia coli): 1
- MBC (Escherichia coli; ATCCBAA2340, Escherichia coli ATCC BAA-2340 (KPC-3), read-out: MBC): 128 µg/mL (≈ 234 µM)
- MBC (Escherichia coli; ATCCBAA2469, Escherichia coli ATCC BAA-2469 (NDM-1), read-out: MBC): > 128 µg/mL
- MIC (Escherichia coli; ATCCBAA2469, Escherichia coli ATCC BAA-2469 (NDM-1), read-out: MIC): > 128 µg/mL
- MBC (Escherichia coli; [1]): >128 µg/mL
- MIC (Escherichia coli; [1]): >128 µg/mL
- MBC (Escherichia coli; Escherichia coli CDC-162 (NDM-7), read-out: MBC): > 128 µg/mL
- MIC (Escherichia coli; Escherichia coli CDC-162 (NDM-7), read-out: MIC): > 128 µg/mL
- MBC (Escherichia coli; Escherichia coli NCTC13476 (IMP-1), read-out: MBC): > 128 µg/mL
- MIC (Escherichia coli; Escherichia coli NCTC13476 (IMP-1), read-out: MIC): > 128 µg/mL
- MIC (Escherichia coli; Escherichia coli, ATCCBAA2340): 128 µg/mL (≈ 234 µM)
- MBC (Serratia marcescens): 64 µg/mL (≈ 117 µM)
- MBC/MIC ratio (Serratia marcescens): 256
- MIC (Serratia marcescens): 0.25 µg/mL (≈ 0.457 µM)
- MBC/MIC ratio (Acinetobacter baumannii; [2]): 2
- MIC (Acinetobacter baumannii; [2]): 64 µg/mL (≈ 117 µM)
- MBC/MIC ratio (Acinetobacter baumannii; Acinetobacter baumannii CDC-304 (OXA-66, OXA-72)): 1
- MIC (Acinetobacter baumannii; Acinetobacter baumannii CDC-304 (OXA-66, OXA-72), read-out: MIC): 64 µg/mL (≈ 117 µM)
- MBC (Acinetobacter baumannii; Acinetobacter baumannii, Acinetobacter baumannii CDC-33 (NDM-1, OXA-94)): > 128 µg/mL
- MIC (Acinetobacter baumannii; Acinetobacter baumannii, Acinetobacter baumannii CDC-33 (NDM-1, OXA-94), read-out: MIC): > 128 µg/mL
- MBC (Acinetobacter baumannii; Acinetobacter baumannii, Acinetobacter baumannii CDC-101 (OXA-24, OXA-65)): > 128 µg/mL
- MIC (Acinetobacter baumannii; Acinetobacter baumannii, Acinetobacter baumannii CDC-101 (OXA-24, OXA-65), read-out: MIC): > 128 µg/mL
- MBC (Acinetobacter baumannii; Acinetobacter baumannii, Acinetobacter baumannii CDC-303 (OXA-23, OXA-66)): 128 µg/mL (≈ 234 µM)
- MBC (Acinetobacter baumannii; Acinetobacter baumannii, Acinetobacter baumannii CDC-304 (OXA-66, OXA-72)): 64 µg/mL (≈ 117 µM)

SMILES: Cc1ncc([N+](=O)[O-])n1CCO [Metronidazole]
- MICrange (Bacteroides spp.; Bacteroides spp.): ≤0.12 to 2 µg/mL
- MIC50 (Bacteroides spp.; Bacteroides spp., read-out: MIC50): 1 µg/mL (≈ 5.84 µM)
- MIC90 (Bacteroides spp.; Bacteroides spp., read-out: MIC90): 1 µg/mL (≈ 5.84 µM)
- MIC (Bacteroides spp.; Bacteroides, KUB No. 2982 Bacteroidesfragilis): 1 µg/mL (≈ 5.84 µM)
- MIC (Bacteroides spp.; Bacteroides, KUB No. 6464 Bacteroides vulgarus): 0.5 µg/mL (≈ 2.92 µM)
- MIC (Bacteroides spp.; Bacteroides, KUB No. 6480 Bacteroides thetaioraomicron): 1 µg/mL (≈ 5.84 µM)
- MIC (Bacteroides spp.; Bacteroides, KUB No. 6487 Bacteroides thetaiotamicron): 0.25 µg/mL (≈ 1.46 µM)
- MIC (Bacteroides spp.; KUB No. 2977 Bacteroides thetaiotaomicron ATCC 29741): 2 µg/mL (≈ 11.7 µM)
- MIC (Bacteroides spp.; KUB No. 2983 Bacteroides fragilis): 0.25 µg/mL (≈ 1.46 µM)
- MIC (Bacteroides spp.; KUB No. 2984 Bacteroides thetaiotaomicron): 1 µg/mL (≈ 5.84 µM)
- MIC (Bacteroides spp.; KUB No. 3003 Bacteroides fragilis ATCC 25285): 0.5 µg/mL (≈ 2.92 µM)
- MIC (Bacteroides spp.; KUB No. 3009 Bacteroides ovatus): 1 µg/mL (≈ 5.84 µM)
- MIC (Bacteroides spp.; KUB No. 6458 Bacteroides fragilis): 0.5 µg/mL (≈ 2.92 µM)
- MIC (Bacteroides spp.; KUB No. 6459 Bacteroides stercoris): 1 µg/mL (≈ 5.84 µM)
- MIC (Bacteroides spp.; KUB No. 6460 Bacteroides thetaiotaomicron): 2 µg/mL (≈ 11.7 µM)
- MIC (Bacteroides spp.; KUB No. 6461 Bacteroides fragilis): 0.5 µg/mL (≈ 2.92 µM)
- MIC (Bacteroides spp.; KUB No. 6463 Bacteroides fragilis): 0.5 µg/mL (≈ 2.92 µM)
- MIC (Bacteroides spp.; KUB No. 6465 Bacteroides thetaiotaomicron): 2 µg/mL (≈ 11.7 µM)
- MIC (Bacteroides spp.; KUB No. 6466 Bacteroides fragilis): 1 µg/mL (≈ 5.84 µM)
- MIC (Bacteroides spp.; KUB No. 6467 Bacteroides fragilis): 0.5 µg/mL (≈ 2.92 µM)
- MIC (Bacteroides spp.; KUB No. 6468 Bacteroides fragilis): 1 µg/mL (≈ 5.84 µM)
- MIC (Bacteroides spp.; KUB No. 6469 Bacteroides fragilis): 1 µg/mL (≈ 5.84 µM)
- MIC (Bacteroides spp.; KUB No. 6470 Bacteroides fragilis): 2 µg/mL (≈ 11.7 µM)
- MIC (Bacteroides spp.; KUB No. 6471 Bacteroides fragilis): 1 µg/mL (≈ 5.84 µM)
- MIC (Bacteroides spp.; KUB No. 6472 Bacteroides stercoris): 0.5 µg/mL (≈ 2.92 µM)
- MIC (Bacteroides spp.; KUB No. 6473 Bacteroides fragilis): 1 µg/mL (≈ 5.84 µM)
- MIC (Bacteroides spp.; KUB No. 6474 Bacteroides fragilis): 0.5 µg/mL (≈ 2.92 µM)
- MIC (Bacteroides spp.; KUB No. 6475 Bacteroides thetaiotaomicron): 1 µg/mL (≈ 5.84 µM)
- MIC (Bacteroides spp.; KUB No. 6476 Bacteroides vulgatus): 1 µg/mL (≈ 5.84 µM)
- MIC (Bacteroides spp.; KUB No. 6477 Bacteroides fragilis): ≤ 0.12 µg/mL
- MIC (Bacteroides spp.; KUB No. 6478 Bacteroides fragilis): 0.25 µg/mL (≈ 1.46 µM)
- MIC (Bacteroides spp.; KUB No. 6481 Bacteroides fragilis): 1 µg/mL (≈ 5.84 µM)
- MIC (Bacteroides spp.; KUB No. 6483 Bacteroides fragilis): 0.25 µg/mL (≈ 1.46 µM)
- MIC (Bacteroides spp.; KUB No. 6484 Bacteroides fragilis): 0.5 µg/mL (≈ 2.92 µM)
- MIC (Bacteroides spp.; KUB No. 6485 Bacteroides vulgatus): 0.25 µg/mL (≈ 1.46 µM)
- MIC (Bacteroides spp.; KUB No. 6486 Bacteroides fragilis): 1 µg/mL (≈ 5.84 µM)
- MIC (Bacteroides spp.; KUB No. 6490 Bacteroides fragilis): 0.5 µg/mL (≈ 2.92 µM)
- MIC (Bacteroides spp.; KUB No. 6491 Bacteroides fragilis): 1 µg/mL (≈ 5.84 µM)
- MIC (Bacteroides spp.; KUB No. 6493 Bacteroides thetaiotaomicron): 1 µg/mL (≈ 5.84 µM)
- MIC (Bacteroides spp.; KUB No. 6496 Bacteroides fragilis): 1 µg/mL (≈ 5.84 µM)
- MIC (Bacteroides spp.; KUB No. 6497 Bacteroides vulgatus): 1 µg/mL (≈ 5.84 µM)
- MIC (Bacteroides spp.; KUB No. 6502 Bacteroides fragilis): 0.25 µg/mL (≈ 1.46 µM)
- MIC (Bacteroides spp.; KUB No. 6503 Bacteroides thetaiotaomicron): 1 µg/mL (≈ 5.84 µM)
- MIC (Bacteroides spp.; KUB No. 6504 Bacteroides caccae): 1 µg/mL (≈ 5.84 µM)
- MIC (Bacteroides spp.; KUB No. 6506 Bacteroides thetaiotaomicron): 1 µg/mL (≈ 5.84 µM)
- MIC (Bacteroides spp.; KUB No. 6509 Bacteroides fragilis): ≤ 0.12 µg/mL
- MIC (Bacteroides spp.; KUB No. 6511 Bacteroides salyersiae): 1 µg/mL (≈ 5.84 µM)
- MIC (Bacteroides spp.; KUB No. 6513 Bacteroides fragilis): 0.5 µg/mL (≈ 2.92 µM)
- MIC (Bacteroides spp.; KUB No. 6515 Bacteroides thetaiotaomicron): 1 µg/mL (≈ 5.84 µM)
- MIC (Bacteroides spp.; KUB No. 6518 Bacteroides fragilis): 0.5 µg/mL (≈ 2.92 µM)
- MIC (Bacteroides spp.; KUB No. 6522 Bacteroides fragilis): 1 µg/mL (≈ 5.84 µM)
- MIC (Bacteroides spp.; KUB No. 6523 Bacteroides fragilis): 1 µg/mL (≈ 5.84 µM)
- MIC (Bacteroides spp.; KUB No. 6525 Bacteroides fragilis): 1 µg/mL (≈ 5.84 µM)
- MIC (Bacteroides spp.; KUB No. 6527 Bacteroides thetaiotaomicron): 1 µg/mL (≈ 5.84 µM)
- MIC (Bacteroides spp.; KUB No. 6530 Bacteroides thetaiotaomicron): 1 µg/mL (≈ 5.84 µM)
- MIC (Bacteroides spp.; KUB No. 6535 Bacteroides fragilis): 0.5 µg/mL (≈ 2.92 µM)
- MIC (Bacteroides spp.; KUB No. 6544 Bacteroides vulgatus): 1 µg/mL (≈ 5.84 µM)
- MIC (Bacteroides spp.; KUB No. 6545 Bacteroides thetaiotaomicron): 0.5 µg/mL (≈ 2.92 µM)
- MIC (Bacteroides spp.; KUB No. 6556 Bacteroides vulgatus): 0.5 µg/mL (≈ 2.92 µM)
- MIC (Gram-positive bacteria; ATCC43255, KUB No. 3518 Clostridioides difficile ATCC 43255, read-out: MIC): 0.5 µg/mL (≈ 2.92 µM)
- MIC (Gram-positive bacteria; ATCC700057, KUB No. 2978 Clostridioides difficile ATCC 700057, read-out: MIC): 0.5 µg/mL (≈ 2.92 µM)
- MIC (Gram-positive bacteria; ATCCBAA1803, KUB No. 3511 Clostridioides difficile ATCC BAA-1803, read-out: MIC): 1 µg/mL (≈ 5.84 µM)
- MIC (Gram-positive bacteria; ATCCBAA1870, KUB No. 3385 Clostridioides difficile ATCC BAA-1870, read-out: MIC): 0.5 µg/mL (≈ 2.92 µM)
- MIC (Gram-positive bacteria; Cutibacterium acnes, ATCC11827): > 64 µg/mL
- MIC (Gram-positive bacteria; Finegoldia magna, ATCC29328): 1 µg/mL (≈ 5.84 µM)
- MIC50 (Gram-positive bacteria; Gram-positive bacteria, read-out: MIC50): 0.5 µg/mL (≈ 2.92 µM)
- MIC90 (Gram-positive bacteria; Gram-positive bacteria, read-out: MIC90): 2 µg/mL (≈ 11.7 µM)
- MIC (Gram-positive bacteria; KUB No. 3013 Bulleidia extructa, read-out: MIC): 2 µg/mL (≈ 11.7 µM)
- MIC (Gram-positive bacteria; KUB No. 3014 Atropobium rimae, read-out: MIC): 2 µg/mL (≈ 11.7 µM)
- MIC (Gram-positive bacteria; Olsenella uli): 2 µg/mL (≈ 11.7 µM)
- MIC (Gram-positive bacteria; Peptoniphilus asaccharolyticus, ATCC14963): 0.5 µg/mL (≈ 2.92 µM)
- MIC (Gram-positive bacteria; Peptoniphilus indolicus): 0.25 µg/mL (≈ 1.46 µM)
- MIC (Gram-positive bacteria; Peptostreptococcus anaerobius): 0.5 µg/mL (≈ 2.92 µM)
- MIC (Gram-positive bacteria; Schaalia odontolytica, ATCC17929, KUB No. 3488 Actinomyces odontolyticus ATCC 17929, read-out: MIC): 32 µg/mL (≈ 187 µM)
